Values of other authors, collected in patent publication US20050282937A1, “Electrochemical compatibilizer and hydrophobic wetting agent for fiber reinforced vinyl esters and related thermosets” (priority 2004, published 2005).
In brackets after ≈: the same amount, converted by molar mass. Where two headings read alike, the source gives them in different places.

Tests used:
[1] = test system: Pseudomonas aeruginosa; conditions: Bacteria associated with polymeric medical devices
[2] = test system: Staphlococcus saprohyticus; conditions: Bacteria associated with polymeric medical devices, strain NCTC7292
[3] = test system: Staphlococcus hyicus; conditions: Bacteria associated with polymeric medical devices, strain ATCC27844
[4] = test system: Actinobacillus actinomycesemcomitans; conditions: Oral Bacteria, laboratory strain Y4
[5] = test system: Lactobacilli; conditions: Oral Bacteria, strain not given
[6] = test system: Capnocytophaga spp; conditions: Fresh isolate from human plaque, Colgate-Palmolive data
[7] = test system: Laboratory rats; conditions: ingestion
[8] = test system: Peptostreptococcus micros; conditions: Fresh isolate from human plaque, Colgate-Palmolive data, strain 1422
[9] = test system: Bacteroides intermedius; conditions: Oral Bacteria
[10] = test system: C. ochracea; conditions: Oral Bacteria, laboratory strain NCTC11654
[11] = catheters of ethylvinyl acetate and polypropylene, up to 2.0 wt %
[12] = test system: S. milleri; conditions: Fresh isolate from human plaque, Colgate-Palmolive data
[13] = test system: Escherichia coli; conditions: catheters of ethylvinyl acetate and polypropylene, up to 2.0 wt %, rabbits
[14] = test system: Actinomyces israeli; conditions: Oral Bacteria, laboratory strain NCTC8047
[15] = test system: Actinomyces odontolyticus
[16] = test system: Fusobacterium nucleatum
[17] = test system: W. recta; conditions: Fresh isolate from human plaque, Colgate-Palmolive data, strain not given
[18] = test system: Bacteroides gingivalis; conditions: Oral Bacteria, laboratory strain 381
[19] = test system: Salmonella enteritidis; conditions: Bacteria associated with polymeric medical devices, strain A
[20] = test system: Porphyromonas gingivalis; conditions: Oral Bacteria, laboratory strain OMZ309
[21] = test system: P. acnes; conditions: Fresh isolate from human plaque, Colgate-Palmolive data, strain 1305
[22] = test system: Steptococcus sanguis; conditions: Oral Bacteria, laboratory strain 34
[23] = test system: Streptococcus mitor; conditions: Oral Bacteria
[24] = test system: Staphylococcus aureus; conditions: catheters of ethylvinyl acetate and polypropylene, up to 2.0 wt %, rabbits
[25] = test system: Staphylococcus epidermidis; conditions: catheters of ethylvinyl acetate and polypropylene, up to 2.0 wt %, rabbits
[26] = test system: Staphlococcus hominus; conditions: Bacteria associated with polymeric medical devices, strain ATCC27844
[27] = test system: Actinomyces actinomycetemcomitans; conditions: Fresh isolate from human plaque, Colgate-Palmolive data
[28] = test system: S. mitior; conditions: Fresh isolate from human plaque, Colgate-Palmolive data
[29] = test system: Escherichia coli; conditions: Bacteria associated with polymeric medical devices
[30] = over a 24-hour period, thermoset dental compound containing 1.0 wt % additive
[31] = test system: Listeria monocytogenes; conditions: Bacteria associated with polymeric medical devices, strain ATCC15313
[32] = test system: Staphlococcus aureus; conditions: Bacteria associated with polymeric medical devices
[33] = test system: Peptococcus asacchrolyticus; conditions: Oral Bacteria, laboratory strain NCTC
[34] = test system: Streptococcus mutans; conditions: dental composite, 1.0 wt % concentration, twenty four-hour period
[35] = test system: Steptococcus sobrinus; conditions: Oral Bacteria, laboratory strain OMZ176
[36] = test system: Candida albicans; conditions: Yeast
[37] = test system: Corynebacterium (Propionibacterium) acnes; conditions: Bacteria associated with polymeric medical devices, strain ATCC6919
[38] = test system: P. anaerobius; conditions: Fresh isolate from human plaque, Colgate-Palmolive data
[39] = test system: Actinomyces viscosus
[40] = test system: Veillonella parvula
[41] = test system: Streptococcus mutans; conditions: Oral Bacteria, laboratory strain 6715
[42] = test system: Staphlococcus epidermidis; conditions: Bacteria associated with polymeric medical devices, strain ATCC12228
[43] = test system: Actinomyces naeslundi; conditions: Oral Bacteria

SMILES: Oc1cc(Cl)ccc1Oc1ccc(Cl)cc1Cl [Triclosan]
- Minimum inhibitory Triclosan concentration ([1]; strain ATCC12055): >1000 µg/mL
- Minimum inhibitory Triclosan concentration ([1]; strain NCTC8060): >1000 µg/mL
- Minimum inhibitory Triclosan concentration [2]: 0.1 µg/mL
- Minimum inhibitory Triclosan concentration [3]: 0.03 µg/mL
- Minimum inhibitory Triclosan concentration [4]: 5.0 µg/mL
- Minimum inhibitory Triclosan concentration [5]: 33.0 µg/mL
- Minimum inhibitory Triclosan concentration ([6]; strain 287): 0.8 µg/mL
- Minimum inhibitory Triclosan concentration ([6]; strain 290): 2.3 µg/mL
- Minimum inhibitory Triclosan concentration ([6]; strain 310): 0.8 µg/mL
- amount ingested without ill effect [7]: greater than 5000 mg/Kg
- Minimum inhibitory Triclosan concentration [8]: 3.1 µg/mL
- solubility (sparingly soluble) (at 20 C°): 0.001 grams per liter
- Triclosan water solubility (at 37 C. °): Triclosan water solubility approximately 30 ug/ml at 37 C. °
- water solubility (at 50 C°): 40 µg/mL (≈ 138 µM)
- Minimum inhibitory Triclosan concentration ([9]; laboratory strain 581): 2.5 µg/mL
- Minimum inhibitory Triclosan concentration ([9]; laboratory strain NCTC9336): 0.4 µg/mL
- Minimum inhibitory Triclosan concentration [10]: <0.4 µg/mL
- leaching [11]: high leaching
- Minimum inhibitory Triclosan concentration ([12]; strain 1339): 2.3 µg/mL
- Minimum inhibitory Triclosan concentration ([12]; strain 1391): 2.3 µg/mL
- effectiveness against Escherichia coli [13]: effectiveness
- Minimum inhibitory Triclosan concentration [14]: 1.0 µg/mL
- Minimum inhibitory Triclosan concentration ([15]; Fresh isolate from human plaque, Colgate-Palmolive data, strain 1041): 0.8 µg/mL
- Minimum inhibitory Triclosan concentration ([15]; Fresh isolate from human plaque, Colgate-Palmolive data, strain 1431): 0.8 µg/mL
- Minimum inhibitory Triclosan concentration ([15]; Oral Bacteria, laboratory strain NCTC9935): 0.8 µg/mL
- Minimum inhibitory Triclosan concentration ([16]; Fresh isolate from human plaque, Colgate-Palmolive data, strain 1446): 0.8 µg/mL
- Minimum inhibitory Triclosan concentration ([16]; Oral Bacteria, laboratory strain NCTC10562): 1.2 µg/mL
- Minimum inhibitory Triclosan concentration [17]: 0.8 µg/mL
- Minimum inhibitory Triclosan concentration [18]: 2.5 µg/mL
- Minimum inhibitory Triclosan concentration [19]: 0.1 µg/mL
- Minimum inhibitory Triclosan concentration [20]: 2.0 µg/mL
- Minimum inhibitory Triclosan concentration [21]: 2.3 µg/mL
- Minimum inhibitory Triclosan concentration [22]: 2.0 µg/mL
- Minimum inhibitory Triclosan concentration ([23]; laboratory strain NCTC7864): 0.8 µg/mL
- Minimum inhibitory Triclosan concentration ([23]; laboratory strain NCTC10712): 1.1 µg/mL
- effectiveness against Staphylococcus aureus [24]: effectiveness
- effectiveness against Staphylococcus epidermidis [25]: effectiveness
- Minimum inhibitory Triclosan concentration [26]: 1.0 µg/mL
- Minimum inhibitory Triclosan concentration ([27]; strain 1426): <0.3 µg/mL
- Minimum inhibitory Triclosan concentration ([27]; strain 1483): <0.3 µg/mL
- Minimum inhibitory Triclosan concentration ([28]; strain 1384): 2.3 µg/mL
- Minimum inhibitory Triclosan concentration ([28]; strain 1387): 2.3 µg/mL
- Minimum inhibitory Triclosan concentration ([29]; strain ATCC9661): 0.3 µg/mL
- Minimum inhibitory Triclosan concentration ([29]; strain ATCC43888): 0.1 µg/mL
- Minimum inhibitory Triclosan concentration ([29]; strain NCTC8196): 0.02 µg/mL
- Minimum inhibitory Triclosan concentration ([29]; strain NCTC11186): 0.5 µg/mL
- Triclosan release in water [30]: 0.02 ppm
- Minimum inhibitory Triclosan concentration [31]: 1.0 µg/mL
- Minimum inhibitory Triclosan concentration ([32]; strain ATCC9144): 0.05 µg/mL
- Minimum inhibitory Triclosan concentration ([32]; strain ATCC29213): <0.125 µg/mL
- Minimum inhibitory Triclosan concentration ([32]; strain NCTC11150): 0.02 µg/mL
- Minimum inhibitory Triclosan concentration ([32]; strain NCTC12232): 0.01 µg/mL
- Minimum inhibitory Triclosan concentration [33]: <0.6 µg/mL
- Streptococcus mutans formation and adhesion [34]: reduced Streptococcus mutans formation and adhesion
- Minimum inhibitory Triclosan concentration [35]: 11.0 µg/mL
- Minimum inhibitory Triclosan concentration ([36]; strain A): 10.0 µg/mL
- Minimum inhibitory Triclosan concentration ([36]; strain ATCC10259): 3.0 µg/mL
- Minimum inhibitory Triclosan concentration [37]: 3.0 µg/mL
- Minimum inhibitory Triclosan concentration ([38]; strain 580): 0.6 µg/mL
- Minimum inhibitory Triclosan concentration ([38]; strain 1198): 2.3 µg/mL
- Minimum inhibitory Triclosan concentration ([39]; Fresh isolate from human plaque, Colgate-Palmolive data, strain 1218): 0.8 µg/mL
- Minimum inhibitory Triclosan concentration ([39]; Oral Bacteria, laboratory strain NCTC10951): 0.8 µg/mL
- Minimum inhibitory Triclosan concentration ([39]; Oral Bacteria, laboratory strain T14V): 5.0 µg/mL
- Minimum inhibitory Triclosan concentration ([40]; Fresh isolate from human plaque, Colgate-Palmolive data, strain 1167): 6.2 µg/mL
- Minimum inhibitory Triclosan concentration ([40]; Fresh isolate from human plaque, Colgate-Palmolive data, strain 1459): 2.3 µg/mL
- Minimum inhibitory Triclosan concentration ([40]; Oral Bacteria, laboratory strain NCTC): 5.4 µg/mL
- Minimum inhibitory Triclosan concentration [41]: 5.0 µg/mL
- Minimum inhibitory Triclosan concentration [42]: <0.125 µg/mL
- Minimum inhibitory Triclosan concentration ([43]; laboratory strain 12104): 1.0 µg/mL
- Minimum inhibitory Triclosan concentration ([43]; laboratory strain A): 1.0 µg/mL
